Laboratory results from ChEMBL document CHEMBL1151666, “Novel Zaragozic Acids from Leptodontidium elatius” (J Nat Prod, 1996).

Assays:
Squalene synthase [1] = target: T1, Squalene synthase (Rattus norvegicus, UniProt Q02769); assay: Inhibition of rat squalene synthase
T1 sequence (Q02769 whole entry): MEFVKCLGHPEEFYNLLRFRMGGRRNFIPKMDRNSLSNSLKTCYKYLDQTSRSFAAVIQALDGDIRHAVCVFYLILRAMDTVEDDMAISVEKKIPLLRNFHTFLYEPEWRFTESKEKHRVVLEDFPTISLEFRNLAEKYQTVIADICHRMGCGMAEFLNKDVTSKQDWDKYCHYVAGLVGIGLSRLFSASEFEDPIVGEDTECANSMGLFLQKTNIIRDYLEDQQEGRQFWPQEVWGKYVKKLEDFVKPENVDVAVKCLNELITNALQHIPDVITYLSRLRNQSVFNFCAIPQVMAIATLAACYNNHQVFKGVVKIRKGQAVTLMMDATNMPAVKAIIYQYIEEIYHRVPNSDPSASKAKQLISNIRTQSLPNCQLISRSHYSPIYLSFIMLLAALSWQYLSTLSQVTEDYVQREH

Squalene synthase [2] = target: T2, Squalene synthase (Homo sapiens, UniProt P37268); assay: Inhibition of squalene synthase
T2 sequence (P37268 whole entry): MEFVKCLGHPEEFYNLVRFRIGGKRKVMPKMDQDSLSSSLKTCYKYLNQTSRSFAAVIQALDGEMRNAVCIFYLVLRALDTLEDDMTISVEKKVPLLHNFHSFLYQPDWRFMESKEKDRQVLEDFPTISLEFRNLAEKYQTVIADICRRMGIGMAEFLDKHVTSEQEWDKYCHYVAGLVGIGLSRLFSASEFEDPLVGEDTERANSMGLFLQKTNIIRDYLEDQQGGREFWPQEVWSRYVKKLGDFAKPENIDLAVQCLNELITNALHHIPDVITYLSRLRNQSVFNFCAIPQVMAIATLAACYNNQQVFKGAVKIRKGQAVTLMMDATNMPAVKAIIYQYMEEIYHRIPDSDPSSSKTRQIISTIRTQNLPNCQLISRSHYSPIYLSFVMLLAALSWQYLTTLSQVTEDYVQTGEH

Ki (Squalene synthase [1]) [nM]	IC50 (Squalene synthase [2]) [nM]	SMILES
0.045	0.3	CC(=O)O[C@H](CCC[C@]12O[C@H](C(=O)O)[C@@](O)(C(=O)O)[C@](C(=O)O)(O1)[C@H](OC(=O)CC/C=C/[C@H](C)CCCc1ccccc1)[C@H]2O)[C@H](C)Cc1ccccc1 [ZARAGOZIC ACID C]
–	2	CCCCCCC[C@@H](CCC[C@]12O[C@H](C(=O)O)[C@@](O)(C(=O)O)[C@](C(=O)O)(O1)[C@H](OC(=O)CC/C=C/[C@@H](C)CCCc1ccccc1)[C@H]2O)OC(C)=O [ZARAGOZIC ACID F]
–	0.2	C[C@@H](CCCC[C@]12O[C@H](C(=O)O)[C@@](O)(C(=O)O)[C@](C(=O)O)(O1)[C@H](OC(=O)CC/C=C/[C@@H](C)CCCc1ccccc1)[C@H]2O)Cc1ccccc1
–	4	C[C@H](/C=C/CCC(=O)O[C@@H]1[C@@H](O)[C@@]2(CC/C=C/[C@H](C)CCCc3ccccc3)O[C@H](C(=O)O)[C@@](O)(C(=O)O)[C@]1(C(=O)O)O2)CCCc1ccccc1 [ZARAGOZIC ACID E]
